Test results from patent US9549965B2, “Pharmaceutical composition for treating a microbial infection” (HELPERBY THERAPEUTICS LIMITED, priority 2010, dated 2017).
Converted amounts (≈) assume the structure as drawn. Structures can show the parent of a compound that is named as a salt. Where two headings read alike, the source gives them in different places.

Columns and labels:
[1] = test system: stationary phase S. aureus; experiment: Bactericidal activity against stationary phase S. aureus (CFU counts); assay type: cell-based, Staphylococcus aureus; conditions: for log reduction at 6.25 µg/mL / log reduction at 12.5 µg/mL / log reduction at 25 µg/mL: Staphylococcus aureus, read-out: Log Kill
Procedure: Staphylococcus aureus (Oxford strain); Gram positive; Reference strain.
(§1) Bacteria were grown in 10 ml of nutrient broth (No. 2 (Oxoid)) overnight at 37° C., with continuous shaking at 120 rpm. The overnight cultures were diluted (1000×) in 100 ml of growth medium and then incubated without shaking for 10 days. Viability of the bacteria was estimated by colony forming unit (CFU) counts at 2 hour intervals at the first 24 hours and at 12-24 hours afterwards. From serial 10-fold dilutions of the experimental cultures, 100 μl samples were added to triplicate plates of nutrient agar plates (Oxoid) and blood agar plates (Oxoid). Colony forming units (CFU) were counted after incubation of the plates at 37° C. for 24 hours.
(§2) Cultures incubated for more than 24 hours are in the stationary phase. For drug screening, 5-6 day old stationary phase cultures were used.
(§3) Different concentrations of each test compound were incubated with stationary phase cultures (5-6 day cultures) in 96 well plates for 24 or 48 hours. Bactericidal activity was then determined by taking CFU counts of the resulting cultures, as described above.

log phase E. coli = experiment: MIC against log phase E. coli; assay type: cell-based, Escherichia coli
Procedure: (§4) Escherichia coli K12; Gram negative; Reference strain.
The above-described overnight cultures were diluted (1000×) with iso-sensitest broth. The cultures were then incubated at 37° C. with shaking for 1-2 hours to reach log CFU 6, which served as log phase cultures.
The bactericidal activity of the drugs against log phase cultures were determined by minimal inhibitory concentration (MIC) of the drugs, which is defined as the lowest concentration which inhibits visible growth. Different concentrations of each test compound were incubated with the log-phase cultures in 96 well plates for 24 hours. Bactericidal activity was then examined by taking a spectrophotometer reading (using a plate reader) at 405 nm.

[2] = test system: NDM-1 Klebsiella pneumoniae; experiment: Chequerboard analysis with colistin against NDM-1 Klebsiella pneumoniae; assay type: cell-based
persistent E. coli = experiment: Bactericidal activity against persistent E. coli selected by gentamicin; assay type: cell-based, Escherichia coli; conditions: for log reduction at 6.25 µg/mL / log reduction at 12.5 µg/mL / log reduction at 25 µg/mL: Escherichia coli, read-out: Log Kill
Procedure: as §4
An antibiotic (gentamicin) was added to 5-6 day stationary-phase cultures to the final concentration of 50 to 100 μg/ml for 24 hours. After 24 hours of antibiotic treatment, the cells are washed 3 times with phosphate buffered saline (PBS), and then resuspended in PBS. The surviving bacterial cells are used as persisters. Viability is estimated by CFU counts. The persisters were then used in measurements of bactericidal activity for test compounds.
Different concentrations of each test compound were incubated with the (persister) cell suspension in 96 well plates for various periods of time (24 and 48 hours). Bactericidal activity was then determined by taking CFU counts of the resulting cultures, as described above.

stationary phase E. coli = experiment: Bactericidal activity against stationary phase E. coli (CFU counts); assay type: cell-based, Escherichia coli; conditions: for log reduction at 6.25 µg/mL / log reduction at 12.5 µg/mL / log reduction at 25 µg/mL: Escherichia coli, read-out: Log kill
Procedure: as §4, §1, §2, §3

[3] = test system: stationary phase P. aeruginosa; experiment: Bactericidal activity against stationary phase P. aeruginosa; assay type: cell-based, Pseudomonas aeruginosa; conditions: FIG. 1
Procedure: as §1, with “Pseudomonas aeruginosa NCTC 6751; Gram negative; Reference strain. Bacteria” for “Bacteria”, “hours. Cultures incubated for more than 24 hours are in the stationary phase. For drug screening, 5-6 day old stationary phase cultures were used. Different concentrations of each test compound were incubated with stationary phase cultures (5-6 day cultures) in 96 well plates for 24 or 48 hours. Bactericidal activity was then determined by taking CFU counts of the resulting cultures, as described above.” for “hours.”

[4] = Escherichia coli, read-out: MIC

Molecule | log reduction at 6.25 µg/mL ([1]; 6.25 μg/ml) | log reduction at 12.5 µg/mL ([1]; 12.5 μg/ml) | log reduction at 25 µg/mL ([1]; 25 μg/ml) | MIC (log phase E. coli; [4]) [µg/mL] | log reduction at 6.25 µg/mL (persistent E. coli; 6.25 μg/ml) | log reduction at 12.5 µg/mL (persistent E. coli; 12.5 μg/ml) | log reduction at 25 µg/mL (persistent E. coli; 25 μg/ml) | log reduction at 6.25 µg/mL (stationary phase E. coli; 6.25 μg/ml) | log reduction at 12.5 µg/mL (stationary phase E. coli; 12.50 μg/ml) | log reduction at 25 µg/mL (stationary phase E. coli; 25.00 μg/ml) | MIC (log phase E. coli) | Log Kill (stationary phase E. coli; 6.25 μg/ml) | Log Kill (stationary phase E. coli; 12.50 μg/ml) | Log Kill (stationary phase E. coli; 25.00 μg/ml) | Log Kill (persistent E. coli; 6.25 μg/ml) | Log Kill (persistent E. coli; 12.5 μg/ml) | Log Kill (persistent E. coli; 25 μg/ml) | also measured
CN(C)CC/C=C1/c2ccccc2Sc2ccc(Cl)cc21 [Chlorprothixene hydrochloride] | 1.83 | 6.15 | 6.15 | 20 | 0.02 | 0.03 | 6.21 |  |  |  |  |  |  |  |  |  |  | spectrophotometer reading ([2]; chlorprothixene hydrochloride 0.25 mg/L alone): 1.14; spectrophotometer reading ([2]; chlorprothixene hydrochloride 0.5 mg/L alone): 1.15; spectrophotometer reading ([2]; chlorprothixene hydrochloride 1 mg/L alone): 1.13; spectrophotometer reading ([2]; chlorprothixene hydrochloride 2 mg/L alone): 1.12; spectrophotometer reading ([2]; chlorprothixene hydrochloride 4 mg/L alone): 1.12; spectrophotometer reading ([2]; chlorprothixene hydrochloride 8 mg/L alone): 1.13; spectrophotometer reading ([2]; chlorprothixene hydrochloride 16 mg/L alone): 1.10; spectrophotometer reading ([2]; chlorprothixene hydrochloride 32 mg/L alone): 1.05; spectrophotometer reading ([2]; chlorprothixene hydrochloride 64 mg/L alone): 0.70; spectrophotometer reading ([2]; chlorprothixene hydrochloride 128 mg/L alone): 0.62; spectrophotometer reading ([2]; chlorprothixene hydrochloride 256 mg/L alone): 0.40
CSc1ccc2c(c1)N(CCC1CCCCN1C)c1ccccc1S2 (centres unmarked) [Thioridazine hydrochloride] | 6.03 | 6.03 | 6.03 | 10 | 0.04 | 0.03 | 6.21 | 6.14 | 6.14 | 6.14 |  |  |  |  |  |  |  | spectrophotometer reading ([2]; thioridazine hydrochloride 0.25 mg/L alone): 0.98; spectrophotometer reading ([2]; thioridazine hydrochloride 0.5 mg/L alone): 0.97; spectrophotometer reading ([2]; thioridazine hydrochloride 1 mg/L alone): 0.97; spectrophotometer reading ([2]; thioridazine hydrochloride 2 mg/L alone): 0.96; spectrophotometer reading ([2]; thioridazine hydrochloride 4 mg/L alone): 0.96; spectrophotometer reading ([2]; thioridazine hydrochloride 8 mg/L alone): 0.96; spectrophotometer reading ([2]; thioridazine hydrochloride 16 mg/L alone): 0.96; spectrophotometer reading ([2]; thioridazine hydrochloride 32 mg/L alone): 0.93; spectrophotometer reading ([2]; thioridazine hydrochloride 64 mg/L alone): 0.73; spectrophotometer reading ([2]; thioridazine hydrochloride 128 mg/L alone): 0.76; spectrophotometer reading ([2]; thioridazine hydrochloride 256 mg/L alone): 1.41
CN(C)CCCN1c2ccccc2Sc2ccc(C(F)(F)F)cc21 [Triflupromazine hydrochloride] | 6.15 | 6.15 | 6.15 | 10 | 0.03 | 2.34 | 6.21 | 2.1 | 6.14 | 6.14 |  |  |  |  |  |  |  | spectrophotometer reading ([2]; triflupromazine 0.25 mg/L alone): 1.11; spectrophotometer reading ([2]; triflupromazine 0.5 mg/L alone): 1.13; spectrophotometer reading ([2]; triflupromazine 1 mg/L alone): 1.14; spectrophotometer reading ([2]; triflupromazine 2 mg/L alone): 1.13; spectrophotometer reading ([2]; triflupromazine 4 mg/L alone): 1.14; spectrophotometer reading ([2]; triflupromazine 8 mg/L alone): 1.17; spectrophotometer reading ([2]; triflupromazine 16 mg/L alone): 1.11; spectrophotometer reading ([2]; triflupromazine 32 mg/L alone): 1.08; spectrophotometer reading ([2]; triflupromazine 64 mg/L alone): 0.73; spectrophotometer reading ([2]; triflupromazine 128 mg/L alone): 0.76; spectrophotometer reading ([2]; triflupromazine 256 mg/L alone): 0.41
Cl.Cl.O=C1c2c(O)ccc(O)c2C(=O)c2c(NCCNCCO)ccc(NCCNCCO)c21 [Mitoxanthrone hydrochloride] |  |  |  |  |  |  |  |  |  |  | — (— signifies MIC higher than 50 μg/ml) | 6.14 | 6.14 | 6.14 | 6.21 | 6.21 | 6.21 | 
N=C1C=CC(=C(c2ccc(N)cc2)c2ccc(N)cc2)C=C1 [Pararosaniline pamoate] | 6.15 | 6.15 | 6.15 | 10 | -0.01 | 0.01 | 6.21 | 1.9 | 6.14 | 6.14 |  |  |  |  |  |  |  | 
CO[C@@]12[C@H](COC(N)=O)C3=C(C(=O)C(C)=C(N)C3=O)N1C[C@@H]1N[C@@H]12 [Mitomycin C] |  |  |  |  |  |  |  |  |  |  | 0.3 µg/mL (≈ 0.897 µM) | 2.27 | 6.14 | 6.14 | 6.21 | 6.21 | 6.21 | Log Kill ([1]; 6.25 μg/ml): 6.15; Log Kill ([1]; 12.5 μg/ml): 6.15; Log Kill ([1]; 25 μg/ml): 6.15
Bleomycin |  |  |  |  |  |  |  |  |  |  | 0.15 µg/mL | 2.22 | 6.14 | 6.14 | 1.55 | 6.21 | 6.21 | 
N.N.[Cl][Pt][Cl] [Cisplatin] |  |  |  |  |  |  |  |  |  |  | — (— signifies MIC higher than 50 μg/ml) | 6.14 | 6.14 | 6.14 | 6.21 | 6.21 | 6.21 | Log Kill ([1]; 6.25 μg/ml): 6.03; Log Kill ([1]; 12.5 μg/ml): 6.03; Log Kill ([1]; 25 μg/ml): 6.03
CCCCCCCCNC(C)C(O)c1ccc(SC(C)C)cc1 (centres unmarked) [Suloctidil] | 6.03 | 6.03 | 6.03 | 10 (≈ 29.6 µM) | 0.02 | 0.02 | 6.21 |  |  |  |  |  |  |  |  |  |  | activity against stationary phase P. aeruginosa [3]: no observable activity; spectrophotometer reading ([2]; suloctidil 0.25 mg/L alone): 0.97; spectrophotometer reading ([2]; suloctidil 0.5 mg/L alone): 1.03; spectrophotometer reading ([2]; suloctidil 1 mg/L alone): 0.98; spectrophotometer reading ([2]; suloctidil 2 mg/L alone): 0.93; spectrophotometer reading ([2]; suloctidil 4 mg/L alone): 0.94; spectrophotometer reading ([2]; suloctidil 8 mg/L alone): 0.70; spectrophotometer reading ([2]; suloctidil 16 mg/L alone): 0.60; spectrophotometer reading ([2]; suloctidil 32 mg/L alone): 0.60; spectrophotometer reading ([2]; suloctidil 64 mg/L alone): 0.38; spectrophotometer reading ([2]; suloctidil 128 mg/L alone): 0.44; spectrophotometer reading ([2]; suloctidil 256 mg/L alone): 0.61
C[n+]1cc2c3c(ccc2c2ccc4cc5c(cc4c21)OCO5)OCO3 [Sanguinarine sulfate] | 6.15 | 6.15 | 6.15 | > 50 | 0.04 | 1.47 | 6.21 | -0.1 | 2.4 | 6.14 |  |  |  |  |  |  |  | 
N.N.O=C([O-])C1(C(=O)[O-])CCC1.[Pt+2] [Carboplatin] |  |  |  |  |  |  |  |  |  |  | — (— signifies MIC higher than 50 μg/ml) | 6.14 | 6.14 | 6.14 | 1.55 | 2.55 | 6.21 | Log Kill ([1]; 6.25 μg/ml): 0.92; Log Kill ([1]; 12.5 μg/ml): 6.03; Log Kill ([1]; 25 μg/ml): 6.03
